This is an account of results in patent publication US20180118756A1, “COMPOSITIONS AND METHODS OF MODULATING SHORT-CHAIN DEHYDROGENASE ACTIVITY” (CASE WESTERN RESERVE UNIVERSITY, priority 2015, published 2018).

In general, solubility refers to the dissolved amount per volume that the medium holds. By IC50 is commonly meant the point on the concentration scale where inhibition reaches its midpoint.

Structures are written as SMILES. In brackets after ≈: the same amount, converted by molar mass. Like-named read-outs stand apart in the source and are kept apart here.

A short description of data set [1]: aqueous solubility in pH 7 or pH 4 citrate buffer solution. In kind it is physicochemical.
In the next data set the target is T1, recombinant 15-PGDH (Homo sapiens, UniProt P15428).
T1 sequence (P15428 1-266): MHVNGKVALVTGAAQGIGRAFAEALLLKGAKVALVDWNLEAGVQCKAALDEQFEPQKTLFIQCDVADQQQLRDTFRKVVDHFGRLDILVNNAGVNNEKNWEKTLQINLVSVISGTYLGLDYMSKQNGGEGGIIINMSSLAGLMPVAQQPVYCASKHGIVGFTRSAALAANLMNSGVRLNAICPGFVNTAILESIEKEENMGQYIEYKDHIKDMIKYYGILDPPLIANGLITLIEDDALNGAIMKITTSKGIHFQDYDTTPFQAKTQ
Put plainly: IC50 for inhibiting enzymatic activity of recombinant 15-PGDH in an in vitro assay. In kind it is biochemical. The conditions noted are these: recombinant human 15-PGDH at 5 nM, in vitro.

The mark [2] stands for this setting: citrate buffer solution, pH 4, aqueous buffer, pH 4 citrate buffer solution, read-out: pH 4 solubility.
The mark [3] stands for this setting: citrate buffer solution, pH 7, aqueous buffer, pH 7 citrate buffer solution, read-out: pH 7 solubility.
[4] abbreviates: read-out: Enzyme Inhibitor IC50 (nM) at 5 nM 15-PGDH.
The mark [5] stands for this setting: Enzyme Inhibitor IC50 (nM) at 5 nM 15-PGDH.

With `CCCC[S+]([O-])c1sc2nc(-c3nccs3)cc(-c3cnc(C4CC4)n3C)c2c1N` (single isomer, unassigned) [SW 212345], the solubility is 164 µg/mL (≈ 358 µM) in data set [1] (setting [2]) and 4 µg/mL (≈ 8.74 µM) in data set [1] (setting [3]).

As to `CCCC[S+]([O-])c1sc2nc(-c3nccs3)cc(-c3cnc(C)n3C)c2c1N` (single isomer, unassigned; (+)) [(+)-(R)- SW 209415], in data set [1] (pH 7 citrate buffer solution), the “pH 7 solubility (μg/mL)” value amounted to 2 μg/mL.

Turning to `CCCC[S+]([O-])c1sc2nc(-c3nccs3)ccc2c1N` (stereo not shown) [SW 206992], the solubility in data set [1] (setting [3]) came to 4.76 µg/mL (≈ 14.1 µM).

Regarding `CCCC[S+]([O-])c1sc2nc(-c3cccs3)cc(C)c2c1N` (stereo not shown) [SW 208488], the solubility in data set [1] (setting [3]) was determined as 2.6 µg/mL (≈ 7.42 µM).

In the case of `CCCC[S+]([O-])c1sc2nc(-c3ncco3)cc(-c3ccccc3)c2c1N` (stereo not shown) [SW 208496], the solubility in data set [1] (setting [3]) came out at 2.2 µg/mL (≈ 5.53 µM).

Turning to `CC(C)[S+]([O-])c1sc2nc(-c3ncco3)cc(-c3ccccc3)c2c1N` (stereo not shown) [SW 208660], at recombinant 15-PGDH (setting [4]), the IC50 amounted to 2.86 nM. Further, the solubility in data set [1] (setting [3]) was 11.6 µg/mL (≈ 30.2 µM).

In the case of `Cc1cc(-c2nccs2)nc2sc([S+]([O-])C(C)C)c(N)c12` (stereo not shown) [SW 208664], on recombinant 15-PGDH (setting [4]), the IC50 came out at 7.62 nM. Further, in data set [1] (setting [3]), the solubility is 9.7 µg/mL (≈ 28.7 µM).

Regarding `CCCC[S+]([O-])c1sc2nc(-c3nccs3)cc(-c3cccnc3)c2c1N` (stereo not shown) [SW 208777], the solubility in data set [1] (setting [2]) amounted to 3.8 µg/mL (≈ 9.17 µM); in data set [1] (setting [3]), 3.4 µg/mL (≈ 8.2 µM).

With `CC(C)[S+]([O-])c1sc2nc(-c3nccs3)cc(-c3cccnc3)c2c1N` (stereo not shown) [SW 208778], the figures for the solubility in data set [1] (setting [2]) and in data set [1] (setting [3]) were 26 µg/mL (≈ 64.9 µM) and 9.9 µg/mL (≈ 24.7 µM), respectively.

In the case of `CC(C)[S+]([O-])c1sc2nc(-c3nccs3)cc(-c3ccccc3)c2c1N` (stereo not shown) [SW 208780], the concentration for half-maximal inhibition (IC50) on recombinant 15-PGDH (setting [4]) is 5.55 nM. Besides, the solubility in data set [1] (setting [3]) stood at 0.65 µg/mL (≈ 1.63 µM).

For the compound `CCCC[S+]([O-])c1sc2nc(-c3nccs3)cc(-c3nccn3C)c2c1N` (stereo not shown) [SW 209125], the solubility in data set [1] (setting [2]) was 31.6 µg/mL (≈ 75.7 µM).

As for `CC(C)[S+]([O-])c1sc2nc(-c3nccs3)cc(-c3nccn3C)c2c1N` (stereo not shown) [SW 209279], the solubility in data set [1] (setting [2]) came out at 73 µg/mL (≈ 181 µM); in data set [1] (setting [3]) it was 37.7 µg/mL (≈ 93.4 µM).

For the compound `CCC[S+]([O-])c1sc2nc(-c3nccs3)cc(-c3nccn3C)c2c1N` (stereo not shown) [SW 209280], the solubility in data set [1] (setting [2]) is 88 µg/mL (≈ 218 µM); in data set [1] (setting [3]), 17 µg/mL (≈ 42.1 µM).

Take `CCCC[S+]([O-])c1sc2nc(-c3nccs3)cc(-c3cnc(C)n3C)c2c1N` (stereo not shown) [SW 209415, 2-(butylsulfinyl)-4-(1,2-dimethyl-1H-imidazol-5-yl)-6-(thiazol-2-yl)thieno[2,3-b]pyridin-3-amine]: the solubility was 241 µg/mL (≈ 558 µM) in data set [1] (setting [2]) and 54.3 µg/mL (≈ 126 µM) in data set [1] (setting [3]).

Turning to `CCCC[S+]([O-])c1sc2nc(-c3nccs3)cc(-c3cccc(CO)c3)c2c1N` (stereo not shown) [SW 209418], the solubility in data set [1] (setting [3]) came out at 5.9 µg/mL (≈ 13.3 µM).

As to `CCCC[S+]([O-])c1sc2nc(-c3nccs3)cc(-c3ccc(OCCO)cc3)c2c1N` (stereo not shown) [SW 211688], the solubility in data set [1] (setting [2]) amounted to 1180 µg/mL (≈ 2490 µM); in data set [1] (setting [3]) it was 115 µg/mL (≈ 243 µM).

On to `CCCC[S+]([O-])c1sc2nc(-c3nccs3)cc(-c3ccc(COC(=O)NCCCl)cc3)c2c1N` (stereo not shown) [SW 213064, 4-(3-amino-2-(butylsulfinyl)-6-(thiazol-2-yl)thieno[2,3-b]pyridin-4-yl)benzyl (2-chloroethyl)carbamate], for which, at recombinant 15-PGDH (setting [5]), the IC50 turned out to be 5.9 nM. The solubility in data set [1] (aqueous buffer, pH 7 citrate buffer solution, read-out: pH 7 solubility) came out at 8.27 µg/mL (≈ 15.1 µM).

Turning to `COCC[S+]([O-])c1sc2nc(-c3nccs3)cc(-c3nccs3)c2c1N` (stereo not shown) [SW 213156], the IC50 at recombinant 15-PGDH (setting [5]) is 5.7 nM. The solubility in data set [1] (setting [3]) came to 3.8 µg/mL (≈ 8.99 µM).

For `CCCC[S+]([O-])c1sc2nc(-c3nccs3)cc(-c3ccc(C(C)O)cc3)c2c1N` (stereo not shown) [SW 217778, 1-(4-(3-amino-2-(butylsulfinyl)-6-(thiazol-2-yl)thieno[2,3-b]pyridin-4-yl)phenyl)ethan-1-ol], the concentration for half-maximal inhibition (IC50) at recombinant 15-PGDH (setting [5]) is 2.2 nM. Moreover, in data set [1] (setting [3]), the solubility was 7.4 µg/mL (≈ 16.2 µM).

For the compound `CCCC[S+]([O-])c1sc2nc(-c3nc(C)cs3)cc(-c3cnc(C)n3C)c2c1N` (stereo not shown) [SW 217779, 2-(butylsulfinyl)-4-(1,2-dimethyl-1H-imidazol-5-yl)-6-(4-methylthiazol-2-yl)thieno[2,3-b]pyridin-3-amine], the figures for the solubility in data set [1] (setting [2]) and in data set [1] (setting [3]) were 597 µg/mL (≈ 1340 µM) and 30.5 µg/mL (≈ 68.4 µM), respectively.

`CCCC[S+]([O-])c1sc2nc(-c3nccs3)cc(-c3cncn3C)c2c1N` (stereo not shown) [SW 217781, 2-(butylsulfinyl)-4-(1-methyl-1H-imidazol-5-yl)-6-(thiazol-2-yl)thieno[2,3-b]pyridin-3-amine]: the IC50 at recombinant 15-PGDH (setting [5]) is 1.9 nM. For the same compound, the values for the solubility in data set [1] (setting [2]) and in data set [1] (setting [3]) were 71.8 µg/mL (≈ 172 µM) and 14 µg/mL (≈ 33.5 µM), respectively.

For `CCCC[S+]([O-])c1sc2nc(-c3nccs3)cc(-c3ccc(OCCOC(=O)CCC(=O)O)cc3)c2c1N` (stereo not shown) [SW 217999, 4-(2-(4-(3-amino-2-(butylsulfinyl)-6-(thiazol-2-yl)thieno[2,3-b]pyridin-4-yl)phenoxy)ethoxy)-4-oxobutanoic acid], on recombinant 15-PGDH (setting [5]), the IC50 came out at 6.2 nM. Also, the solubility in data set [1] (setting [3]) came out at 747 µg/mL (≈ 1300 µM).

As for `CCCC[S+]([O-])c1sc2nc(-c3nccs3)cc(-c3nc(C)c(C)n3C)c2c1N` (stereo not shown) [SW 218522, 2-(butylsulfinyl)-6-(thiazol-2-yl)-4-(1,4,5-trimethyl-1H-imidazol-2-yl)thieno[2,3-b]pyridin-3-amine], on recombinant 15-PGDH (setting [5]), the IC50 came to 2.5 nM.
